Broadly, the IC50 is the concentration needed to halve the response being measured.

In the first assay the test system is HL60 cells. Nature of the assay: Anti-proliferation ability of compounds on HL60 cells (CellTiter-Glo). The class given is cell-based. The conditions noted are these: Homo sapiens, HL-60, 72 h, incubated 3 days, CTG luminescence, IC50 calculated by XLfit. The procedure: • I. Anti-proliferation ability of compounds on HL60 cells • Activity test methods: • 1. Cell plating • HL60 cells in the logarithmic growth phase were counted and plated evenly in a 96-well transparent bottom white plate at 20000 cells per well and […] per well. • 2. Drug addition to cells • A certain amount of the compounds was weighed and diluted with DMSO to a 10 mM stock solution. The culture mediums corresponding to the cells were taken, and the drugs were diluted to the concentration required by the test, shaken gently and mixed evenly. 50 μl of the gradient dilution of the diluted compound was added to each well of the plated cells, and 50 μl of 0.1% DMSO was added to the control group. The plate was shaken gently, mixed evenly and incubated in a cell culture incubator for 3 days. • 3. CTG detection • 3.1 The CellTiter-Glo™ (CTG) reagent was taken in advance from the −20° C. refrigerator and equilibrated to room temperature in the dark. • 3.2 The 96-well plate was taken out and inspected under a microscope for growth situation. • 3.3 The bottom of the 96-well plate was tagged with white paper, and then the plate was wrapped with tin foil paper, shaken at 37° C. at 300 r for 10 mina and mixed evenly. • 3.4 50 ul of CTG detection reagent was added to each well, Luminescence signal was detected using a microplate reader, and the inhibition rate was calculated. IC50 values of the compounds were calculated by XLfit software to evaluate the proliferation inhibitory activity on 11160 cells.
As for `Cc1ccc(N2CCN(Cc3ccc(C(=O)NCc4ccc5c(c4)CN(C4CCC(=O)NC4=O)C5=O)cc3)C(CO)C2)cc1Cl` (stereo not shown) [KT-022], the IC50 was 1.03 ± 0.19 nM.

As for `O=C1CCC(N2Cc3cc(CNC(=O)c4ccc(CN5CCN(c6ccc(OCCO)c(Cl)c6)CC5)cc4)ccc3C2=O)C(=O)N1` (stereo not shown) [KT-019], the IC50 was 2.8 ± 0.1 nM.

For the compound `NCCOc1cc(-c2cccc3cccnc23)cnc1N1CCC(CC(=O)Nc2ccc3c(c2)CN(C2CCC(=O)NC2=O)C3=O)CC1` (stereo not shown) [KT-032], the IC50 was 5620 nM.

`O=C1CCC(N2Cc3cc(NC(=O)CC4CCN(c5ncc(-c6cccc7cccnc67)cc5CO)CC4)ccc3C2=O)C(=O)N1` (stereo not shown) [KT-028]: the IC50 was under 0.34 nM.

`O=C1CCC(N2Cc3cc(C(=O)NCc4ccc(CN(CCO)CCc5cccc6ccccc56)cc4)ccc3C2=O)C(=O)N1` (stereo not shown) [KT-003]: the IC50 is 0.71 ± 0.04 nM.

With `O=C1CCC(N2Cc3cc(C(=O)NCc4ccc(CN(CCc5ccccc5)C(=O)NCCO)cc4)ccc3C2=O)C(=O)N1` (stereo not shown) [KT-015], the IC50 is 24.2 ± 10.1 nM.

For `O=C(Cn1c2ccccc2c2cccnc21)NCc1ccc(CNC(=O)c2ccc3c(c2)CN(C2CCC(=O)NC2=O)C3=O)c(OCCO)c1` (stereo not shown) [KT-006], the IC50 was 2.19 ± 1.5 nM.

Take `O=C1CCC(N2Cc3cc(NC(=O)CC4CCN(c5ncc(-c6nccc7ccccc67)cc5CO)CC4)ccc3C2=O)C(=O)N1` (stereo not shown) [KT-030]: the IC50 is under 0.34 nM.

For `O=C1CCC(N2Cc3cc(C(=O)NCc4ccc(CN(CCc5cccc6ccccc56)C(=O)CS)cc4)ccc3C2=O)C(=O)N1` (stereo not shown) [KT-042], the IC50 is 34 ± 7 nM.

As for `CN(CCc1ccccc1)Cc1ccc(C(=O)NCc2ccc3c(c2)CN(C2CCC(=O)NC2=O)C3=O)c(O)c1` (stereo not shown) [KT-034], the IC50 was 9.9 ± 3 nM.

With `O=C1CCC(N2Cc3cc(CNC(=O)c4ccc(CN5CCN(c6ccc(O)c(Cl)c6)CC5)cc4)ccc3C2=O)C(=O)N1` (stereo not shown) [KT-017], the IC50 is 10.5 ± 0.4 nM.

On to `O=C1CCC(N2Cc3cc(C(=O)NCc4ccc(CN(CCO)CCc5ccc(Cl)c(Cl)c5)cc4)ccc3C2=O)C(=O)N1` (stereo not shown) [KT-002], for which the IC50 was under 3.04 nM.

On to `O=C1CCC(N2Cc3cc(CNC(=O)c4ccc(CN5CCN(c6ccc(CO)c(Cl)c6)CC5)cc4)ccc3C2=O)C(=O)N1` (stereo not shown) [KT-018], for which the IC50 was 2.17 ± 0.78 nM.

In the case of `Cc1ccc(N2CCN(Cc3ccc(C(=O)NCc4ccc5c(c4)CN(C4CCC(=O)NC4=O)C5=O)c(O)c3)CC2)cc1Cl` (stereo not shown) [KT-020], the IC50 is 1.36 ± 0.67 nM.

For `O=C1CCC(N2Cc3cc(NC(=O)CC4CCN(c5ncc(Br)cc5CO)CC4)ccc3C2=O)C(=O)N1` (stereo not shown) [KT-026], the IC50 is 23 ± 3 nM.

For `O=C1CCC(N2Cc3cc(C(=O)NCc4ccc(CN(Cc5ccccc5)C(=O)CO)cc4)ccc3C2=O)C(=O)N1` (stereo not shown) [KT-016], the IC50 is 3.04 ± 0.84 nM.

For `O=C1CCC(N2Cc3cc(C(=O)NCc4ccc(CNCCc5cccc6ccccc56)cc4)ccc3C2=O)C(=O)N1` (stereo not shown) [KT-025], the IC50 was under 3.04 nM.

For the compound `CC(=O)c1ccc(N2CCN(Cc3ccc(C(=O)NCc4ccc5c(c4)CN(C4CCC(=O)NC4=O)C5=O)cc3)CC2)cc1Cl` (stereo not shown) [KT-041], the IC50 was under 3.04 nM.

Turning to `CN(Cc1ccc(C(=O)NCc2ccc3c(c2)CN(C2CCC(=O)NC2=O)C3=O)cc1)CC(O)c1ccccc1` (stereo not shown) [KT-013], the IC50 was 3.45 ± 0.52 nM.

For `NCc1cc(-c2cccc3cccnc23)cnc1N1CCC(CC(=O)Nc2ccc3c(c2)CN(C2CCC(=O)NC2=O)C3=O)CC1` (stereo not shown) [KT-029], the IC50 was 0.57 ± 0.1 nM.

With `O=C1CCC(N2Cc3cc(C(=O)NCc4ccc(CN(CCO)CCc5ccccc5)cc4)ccc3C2=O)C(=O)N1` (stereo not shown) [KT-001], the IC50 was under 3.04 nM.

Take `O=C1CCC(N2Cc3cc(NC(=O)CC4CCN(c5ncc(-c6cccc7cccnc67)cc5OCCO)CC4)ccc3C2=O)C(=O)N1` (stereo not shown) [KT-031]: the IC50 was under 0.34 nM.

As for `O=C1CCC(N2Cc3cc(C(=O)NCc4ccc(CN(CCc5ccccc5)C(=O)CCO)cc4)ccc3C2=O)C(=O)N1` (stereo not shown) [KT-033], the IC50 was 6 ± 1.6 nM.

The target of another assay is T1, c-Myc (Homo sapiens, UniProt P01106).
T1 construct: endogenous in cells; host or cells: HL60 (human acute promyelocytic leukemia cells)
T1 sequence (P01106 whole entry): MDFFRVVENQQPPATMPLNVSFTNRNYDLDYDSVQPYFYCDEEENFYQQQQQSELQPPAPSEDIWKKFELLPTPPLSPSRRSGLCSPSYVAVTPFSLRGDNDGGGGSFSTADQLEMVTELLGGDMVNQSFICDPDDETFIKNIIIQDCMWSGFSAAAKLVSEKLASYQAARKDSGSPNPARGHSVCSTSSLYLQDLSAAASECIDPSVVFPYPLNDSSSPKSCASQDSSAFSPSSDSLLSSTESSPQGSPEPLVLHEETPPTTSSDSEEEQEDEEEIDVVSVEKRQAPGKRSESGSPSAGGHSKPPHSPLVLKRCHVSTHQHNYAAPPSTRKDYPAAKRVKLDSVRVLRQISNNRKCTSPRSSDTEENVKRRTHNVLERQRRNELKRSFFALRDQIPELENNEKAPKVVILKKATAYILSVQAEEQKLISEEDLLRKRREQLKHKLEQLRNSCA
Nature of the assay: Protein degradation experiment (Western blot), c-Myc in HL60 cells. The assay is classed as cell-based. The conditions noted are these: 6 h of drug treatment, FIG. 1, at lower concentration (about 3 μm to 10 nmn). The procedure:
(§1) Cell culture conditions: The cells in the embodiments of the invention were purchased from Shanghai Cell Bank, Chinese Academy of Sciences. Human acute promyelocytic leukemia cells (HL60 cells) were cultured in RPMI-1640 (meilunbio, MA0215)^+20% FBS(manufacturer: Bi, product number: 04-001-1ACS)^+1% penicillin/streptomycin (manufacturer: Hyclone, product number: SH40003.01). The cell culture conditions were 5% CO2 and […]. When the cell coverage reached about 80%, the cells were passaged at a ratio of 1:3.
(§2) 2. Cell drug treatment and protein extraction 2.1 Cell treatment
(§3) The designated cells in the exponential growth phase were digested and plated into a 6-well plate at 1 10^6 cells per well. […]
(§4) By using the BCA protein concentration determination kit (from Thermo Fisher, Cat. No. 23225), the BSA standard determination solution and the supernatant in 2.2 to be tested (the supernatant can be diluted and then tested) were prepared according to the table 2 below. […] The plate was placed at 60′C for 10 min, and then the absorbance at 562 nim was detected. After the reading was recorded, a standard curve was plotted using concentration gradients of the standards, and the absorbance of the samples was substituted to calculate the protein concentration of the samples. […]
As to `O=C1CCC(N2Cc3cc(C(=O)NCc4ccc(CN(CCO)CCc5ccc(Cl)c(Cl)c5)cc4)ccc3C2=O)C(=O)N1` (stereo not shown) [KT-002], the “degradation of e-Myc (c-Myc) protein in HL60 cells” value is “completely degrade”.

For a further assay, the target named is T2, GSPT1 (Homo sapiens, UniProt P15170).
T2 construct: endogenous in cells; host or cells: HL60 (human acute promyelocytic leukemia cells)
T2 sequence (P15170 whole entry): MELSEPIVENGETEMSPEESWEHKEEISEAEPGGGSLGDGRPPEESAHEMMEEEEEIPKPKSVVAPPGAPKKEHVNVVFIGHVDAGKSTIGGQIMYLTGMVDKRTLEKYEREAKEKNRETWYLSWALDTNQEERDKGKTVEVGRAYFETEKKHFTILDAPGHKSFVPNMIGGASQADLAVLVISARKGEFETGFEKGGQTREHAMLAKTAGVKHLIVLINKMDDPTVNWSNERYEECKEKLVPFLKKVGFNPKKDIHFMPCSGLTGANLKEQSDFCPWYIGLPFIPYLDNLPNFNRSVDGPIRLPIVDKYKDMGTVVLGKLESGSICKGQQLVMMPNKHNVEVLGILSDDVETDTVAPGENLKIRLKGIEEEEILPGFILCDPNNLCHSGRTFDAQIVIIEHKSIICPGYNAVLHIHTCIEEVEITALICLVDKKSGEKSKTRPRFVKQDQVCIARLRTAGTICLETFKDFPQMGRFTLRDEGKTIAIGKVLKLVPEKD
Nature of the assay: Protein degradation experiment (Western blot), GSPT1 in HL60 cells. The class given is cell-based. Conditions: 6 h of drug treatment, FIG. 1, at lower concentration (about 3 μm to 10 nmn). The method, then:
as §1, §2, §3, §4
Background: Immunoblotting shows a protein as a band on a membrane.
Regarding `O=C1CCC(N2Cc3cc(C(=O)NCc4ccc(CN(CCO)CCc5ccc(Cl)c(Cl)c5)cc4)ccc3C2=O)C(=O)N1` (stereo not shown) [KT-002], the “degradation of GSPT1 protein in HL60 cells” value is recorded as “completely degrade”.
